The results in this text go back to patent US20260234211A1, “POLYPEPTIDE HAVING MODIFIED STRUCTURE AND USE THEREOF” (Guangdong Raynovent Biotech Co., Ltd., priority 2023, published 2026).

One data set deals with T1, GIPR (Homo sapiens, UniProt P48546).
T1 construct: host or cells: CHO
T1 sequence (P48546 22-466): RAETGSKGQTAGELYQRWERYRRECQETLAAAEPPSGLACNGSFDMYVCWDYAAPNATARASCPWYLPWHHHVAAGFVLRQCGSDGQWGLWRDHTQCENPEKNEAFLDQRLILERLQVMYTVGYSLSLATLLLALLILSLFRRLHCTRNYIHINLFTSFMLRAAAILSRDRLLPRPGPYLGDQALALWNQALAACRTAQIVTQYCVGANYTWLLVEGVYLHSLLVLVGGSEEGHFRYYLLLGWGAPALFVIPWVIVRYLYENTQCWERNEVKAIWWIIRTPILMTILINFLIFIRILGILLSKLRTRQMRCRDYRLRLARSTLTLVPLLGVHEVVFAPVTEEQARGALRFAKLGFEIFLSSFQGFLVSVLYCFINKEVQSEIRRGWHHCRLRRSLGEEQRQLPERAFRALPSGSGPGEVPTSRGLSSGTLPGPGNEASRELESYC
Kind of data set: In vitro GIPR agonistic activity test (cAMP, CHO cell line). Type of data set: cell-based. The conditions noted are these: CHO cells expressing GIPR, read-out: GIP-1 EC50. Here is the method:
(§1) The cell lines were constructed by Pharmaron Inc. See details in the table below.
(§2) The test compounds were diluted at a 5-fold dilution factor in 10 points, starting from an initial concentration of 200 nM.
(§3) 1) The cell lines were cultured respectively in complete medium at 37° C. and 5% CO2.
(§4) 1) Eu-cAMP tracer was freeze-thawed and diluted 50 fold with detection buffer; and Ulight-anti-cAMP was freeze-thawed and diluted 150 fold with detection buffer.
(§5) 3) 10 μL of Eu-cAMP tracer was added and then 10 μL of Uligh-anti-cAMP was added into experimental wells respectively.
(§6) 4) The reaction plate was centrifuged at 200 g at room temperature for 30 s and left for stand at 25° C. for 1 h.

Data set [1] in a line: Metabolic stability in human kidney S9. Type of data set: in vitro ADME. The conditions noted are these: human, s9. Here is the method:
The metabolic stability of the compounds in human kidney was evaluated to determine whether the drugs would be degraded by metabolic enzymes in the kidney to affect the efficacies and pharmacokinetics. 1. Relevant solutions were formulated. 2. a) With cofactors (NADPH & UDPGA): NADPH and UDPGA were added during the incubation. […] H2O was added into the culture solution. The final concentration of KS9 Fractions was 1 mg/mL. The mixture was pre-heated at 37° C. for 10 min. […] In this study, 7-hydroxy-coumarin and Raloxifene were used as the positive control. The final concentration of the positive control compounds was 0.2 μM, and the final concentration of the test compound was 1 μM. The culture solution was incubated in water bath at 37° C. 4. At 0.5, 5, 15, 30 and 60 min, volume aliquots were taken from the reaction solution and the reaction was stopped by adding acetonitrile. The samples were centrifuged for 30 min. The supernatant was taken and mixed with ultrapure water for subsequent LC-MS/MS analysis. 5. Data analysis: All calculation was conducted using Microsoft Excel. Peak areas were determined and slope values were calculated based on the extracted ion chromatograms.

Another data set concerns the target T2, GLP-1R (Homo sapiens, UniProt P43220).
T2 construct: host or cells: HEK293
Kind of data set: In vitro GLP-1R agonistic activity test (cAMP, HEK293 cell line). Type of data set: cell-based. The procedure: as §1, §2, §3, §4, §5, §6

A further data set concerns the target T3, GCGR (Homo sapiens, UniProt P47871).
T3 construct: host or cells: HEK293
Kind of data set: In vitro GCGR agonistic activity test (cAMP, HEK293 cell line). Type of data set: cell-based. Here is the method: as §1, §2, §3
2) After digestion with TrypLE, the cells were re-suspended in experimental buffer respectively, and inoculated in a CulturPlate-384 cell culture plate at a density of 2000 cells/well and at a volume of 15 μL/well.
as §4
2) 5 μL of the test compounds were added respectively into experimental wells of the CulturPlate-384 cell culture plate, which was centrifuged at 200 g for 30 s, and left for stand at 37° C. for 30 min.
as §5, §6
5) Envision 2105 was used to collect data, with excitation light at 340 nm and emission light at 665 nm and 615 nm.

Data set [2] in a line: Pharmacokinetic properties in Cynomolgus macaques. The conditions noted are these: cynomolgus monkey, in vivo, male cynomolgus macaques, plasma. The procedure: To test the pharmacokinetic profiles of the compounds in Cynomolgus macaques.
Non-juvenile male cynomolgus macaques were used for experiment, 3 cynomolgus macaques for each compound. Whole blood was collected at time points of 1 h, 2 h, 4 h, 8 h, 16 h, 24 h, 48 h, 72 h, 120 h, 168 h and 240 h after administration, to prepare plasma. The drug concentration was analyzed by LC-MS/MS method, and the pharmacokinetic parameters were calculated using Phoenix WinNonlin software.

[3] abbreviates: cAMP, HEK293 cells expressing GLP-1R, read-out: GLP-1 EC50.
The mark [4] stands for this setting: cAMP, HEK293 cells expressing GCGR, read-out: GCG EC50.

SMILES strings stand for the structures. Read-outs that look alike come from different tables or passages of the source.

T3 sequence (P47871 26-477, species assumed): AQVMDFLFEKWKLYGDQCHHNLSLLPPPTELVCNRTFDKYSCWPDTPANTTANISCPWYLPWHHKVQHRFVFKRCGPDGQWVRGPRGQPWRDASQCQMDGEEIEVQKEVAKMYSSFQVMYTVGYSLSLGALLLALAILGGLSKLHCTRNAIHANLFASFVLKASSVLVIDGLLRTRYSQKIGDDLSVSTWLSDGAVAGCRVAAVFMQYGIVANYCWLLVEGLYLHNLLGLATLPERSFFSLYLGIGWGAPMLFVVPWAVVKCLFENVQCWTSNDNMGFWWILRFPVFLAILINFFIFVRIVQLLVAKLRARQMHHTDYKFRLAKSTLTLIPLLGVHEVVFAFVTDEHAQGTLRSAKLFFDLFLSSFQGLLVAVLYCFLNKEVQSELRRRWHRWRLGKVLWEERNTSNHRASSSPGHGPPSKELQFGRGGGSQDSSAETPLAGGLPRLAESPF
T2 sequence (P43220 24-463, species assumed): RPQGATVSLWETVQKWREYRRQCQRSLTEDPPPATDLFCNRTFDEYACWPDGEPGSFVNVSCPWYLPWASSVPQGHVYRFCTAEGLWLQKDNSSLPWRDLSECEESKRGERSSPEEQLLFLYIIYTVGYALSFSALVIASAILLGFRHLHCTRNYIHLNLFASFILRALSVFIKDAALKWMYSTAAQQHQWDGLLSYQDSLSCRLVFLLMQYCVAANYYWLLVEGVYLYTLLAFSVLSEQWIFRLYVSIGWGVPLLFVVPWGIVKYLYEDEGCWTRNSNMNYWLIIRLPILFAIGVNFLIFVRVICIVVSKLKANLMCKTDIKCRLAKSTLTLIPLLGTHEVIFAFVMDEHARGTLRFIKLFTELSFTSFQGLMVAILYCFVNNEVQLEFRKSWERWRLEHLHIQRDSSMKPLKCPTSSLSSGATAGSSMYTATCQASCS

For `CC[C@H](C)[C@H](NC(=O)[C@H](Cc1ccccc1)NC(=O)[C@@H]1CCCCNC(=O)CN(C(=O)COCCOCCNC(=O)COCCOCCNC(=O)CC[C@H](NC(=O)CCCCCCCCCCCCCCCCCCC(=O)O)C(=O)O)CC(=O)NCCCC[C@H](NC(=O)[C@H](CCCCN)NC(=O)[C@H](CC(=O)O)NC(=O)[C@H](CC(C)C)NC(=O)[C@](C)(CC(C)C)NC(=O)[C@@H](NC(=O)[C@H](CO)NC(=O)[C@H](Cc2ccc(O)cc2)NC(=O)[C@H](CC(=O)O)NC(=O)[C@H](CO)NC(=O)[C@@H](NC(=O)[C@H](Cc2ccccc2)NC(=O)[C@@H](NC(=O)CNC(=O)[C@H](CCC(N)=O)NC(=O)C(C)(C)NC(=O)[C@@H](N)Cc2ccc(O)cc2)[C@@H](C)O)[C@@H](C)O)[C@@H](C)CC)C(=O)N[C@@H](C)C(=O)N[C@@H](CCC(N)=O)C(=O)NC(C)(C)C(=O)N1)C(=O)N[C@@H](CCC(=O)O)C(=O)N[C@@H](Cc1ccc(O)cc1)C(=O)N[C@@H](CC(C)C)C(=O)N[C@@H](CC(C)C)C(=O)N[C@@H](CCC(=O)O)C(=O)NCC(=O)NCC(=O)N1CCC[C@H]1C(=O)N[C@@H](CO)C(=O)N[C@@H](CO)C(=O)NCC(=O)N[C@@H](C)C(=O)N1CCC[C@H]1C(=O)N1CCC[C@H]1C(=O)N1CCC[C@H]1C(=O)N[C@@H](CO)C(N)=O` [Example 1, YAibQGT FTSDY SIα- MeLLD K^1KAQAib ^1KFIEY LLEGG PSSGA PPPS-NH2 (SEQ ID NO: 1)], the EC50 (usually the concentration needed to bring the measured effect to its halfway point) on GIPR came out at 1 pM. Besides, in data set [1], the half-life at 1 μM was above 3.08 h and the intrinsic clearance (microsomal CLint) – broadly, the rate of metabolic loss divided by the concentration – at 1 μM was below 3.75 µL/min/mg. On GLP-1R (setting [3]), the EC50 stood at 9 pM.
Regarding `CC[C@H](C)[C@H](NC(=O)[C@H](Cc1ccccc1)NC(=O)[C@H](C)NC(=O)C(C)(C)NC(=O)[C@H](CCC(N)=O)NC(=O)[C@H](C)NC(=O)[C@@H]1CCCCNC(=O)CN(C(=O)COCCOCCNC(=O)CC[C@H](NC(=O)CCCCCCCCCCCCCCCCCCC(=O)O)C(=O)O)CC(=O)NCCCC[C@H](NC(=O)[C@](C)(CC(C)C)NC(=O)[C@@H](NC(=O)[C@H](CO)NC(=O)[C@H](Cc2ccc(O)cc2)NC(=O)[C@H](CC(=O)O)NC(=O)[C@H](CO)NC(=O)[C@@H](NC(=O)[C@H](Cc2ccccc2)NC(=O)[C@@H](NC(=O)CNC(=O)[C@H](CCC(N)=O)NC(=O)C(C)(C)NC(=O)[C@@H](N)Cc2ccc(O)cc2)[C@@H](C)O)[C@@H](C)O)[C@@H](C)CC)C(=O)N[C@@H](CC(=O)O)C(=O)N[C@@H](CCCCN)C(=O)N1)C(=O)N[C@@H](CCC(N)=O)C(=O)N[C@@H](Cc1ccc(O)cc1)C(=O)N[C@@H](CC(C)C)C(=O)N[C@@H](CC(C)C)C(=O)N[C@@H](CCC(=O)O)C(=O)NCC(=O)NCC(=O)N1CCC[C@H]1C(=O)N[C@@H](CO)C(=O)N[C@@H](CO)C(=O)NCC(=O)N[C@@H](C)C(=O)N1CCC[C@H]1C(=O)N1CCC[C@H]1C(=O)N1CCC[C@H]1C(=O)N[C@@H](CO)C(N)=O` [Example 42, YAibQGT FTSDY SIα- MeL^1KD K^1KAQAib AFIQY LLEGG PSSGA PPPS-NH2 (SEQ ID NO: 39)], the EC50 on GCGR (setting [4]) was 25 pM; at GLP-1R (setting [3]), 7 pM.
With `CC[C@H](C)[C@H](NC(=O)[C@H](Cc1ccccc1)NC(=O)[C@H](C)NC(=O)C(C)(C)NC(=O)[C@H](CCC(N)=O)NC(=O)[C@H](C)NC(=O)[C@@H]1CCCCNC(=O)CN(C(=O)COCCOCCNC(=O)CC[C@H](NC(=O)CCCCCCCCCCCCCCCCCCC(=O)O)C(=O)O)CC(=O)NCCCC[C@H](NC(=O)[C@](C)(CC(C)C)NC(=O)[C@@H](NC(=O)[C@H](CO)NC(=O)[C@H](Cc2ccc(O)cc2)NC(=O)[C@H](CC(=O)O)NC(=O)[C@H](CO)NC(=O)[C@@H](NC(=O)[C@](C)(Cc2ccccc2)NC(=O)[C@@H](NC(=O)CNC(=O)[C@H](CCC(N)=O)NC(=O)C(C)(C)NC(=O)[C@@H](N)Cc2ccc(O)cc2)[C@@H](C)O)[C@@H](C)O)[C@@H](C)CC)C(=O)N[C@@H](CC(=O)O)C(=O)N[C@@H](CCCCN)C(=O)N1)C(=O)N[C@@H](CCC(=O)O)C(=O)N[C@@H](Cc1ccc(O)cc1)C(=O)N[C@@H](CC(C)C)C(=O)N[C@@H](CC(C)C)C(=O)N[C@@H](CCCCN)C(=O)NCC(=O)NCC(=O)N1CCC[C@H]1C(=O)N[C@@H](CO)C(=O)N[C@@H](CO)C(=O)NCC(=O)N[C@@H](C)C(=O)N1CCC[C@H]1C(=O)N1CCC[C@H]1C(=O)N1CCC[C@H]1C(=O)N[C@@H](CO)C(N)=O` [Example 51, YAibQGT α-MeFTSDY SIα- MeL^1KD K^1KAQAib AFIEY LLKGG PSSGA PPPS-NH2 (SEQ ID NO: 43)], the EC50 at GCGR (setting [4]) was 25 pM; on GLP-1R (setting [3]) it was 1 pM.
Turning to `CC[C@H](C)[C@H](NC(=O)[C@H](Cc1ccccc1)NC(=O)[C@H](C)NC(=O)C(C)(C)NC(=O)[C@H](CCC(N)=O)NC(=O)[C@H](C)NC(=O)[C@@H]1CCCCNC(=O)CN(C(=O)COCCOCCNC(=O)[C@@H](N)CCCCNC(=O)CC[C@H](NC(=O)CCCCCCCCCCCCCCCCCCC(=O)O)C(=O)O)CC(=O)NCCCC[C@H](NC(=O)[C@](C)(CC(C)C)NC(=O)[C@@H](NC(=O)[C@H](CO)NC(=O)[C@H](Cc2ccc(O)cc2)NC(=O)[C@H](CC(=O)O)NC(=O)[C@H](CO)NC(=O)[C@@H](NC(=O)[C@H](Cc2ccccc2)NC(=O)[C@@H](NC(=O)CNC(=O)[C@H](CCC(N)=O)NC(=O)C(C)(C)NC(=O)[C@@H](N)Cc2ccc(O)cc2)[C@@H](C)O)[C@@H](C)O)[C@@H](C)CC)C(=O)N[C@@H](CC(=O)O)C(=O)N[C@@H](CCCCN)C(=O)N1)C(=O)N[C@@H](CCC(=O)O)C(=O)N[C@@H](Cc1ccc(O)cc1)C(=O)N[C@@H](CC(C)C)C(=O)N[C@@H](CC(C)C)C(=O)N[C@@H](CCC(=O)O)C(=O)NCC(=O)NCC(=O)N1CCC[C@H]1C(=O)N[C@@H](CO)C(=O)N[C@@H](CO)C(=O)NCC(=O)N[C@@H](C)C(=O)N1CCC[C@H]1C(=O)N1CCC[C@H]1C(=O)N1CCC[C@H]1C(=O)N[C@@H](CO)C(N)=O` [Example 52, YAibQGT FTSDY SIα- MeL^1KD K^1KAQAib AFIEY LLEGG PSSGA PPPS-NH2 (SEQ ID NO: 24)], the half-maximal effective concentration (EC50) turned out to be 25 pM at GCGR and 3 pM on GLP-1R. Further, in data set [2] (read-out: AUC0-240 h), the AUC(0-t) amounted to 5.23 µM·h. The AUC(0-inf) in data set [2] (read-out: AUCINF) was found to be 6.61 µM·h. In data set [2] (read-out: Cmax), the highest concentration (Cmax) (in general, the peak of the concentration-time curve) amounted to 36.2 nM. Moreover, in data set [2] (read-out: T1/2 (converted)), the half-life was 97.8 h. In data set [2] (read-out: Tmax), the time of peak concentration (Tmax) (usually the time from dosing to the highest level) is 29.3 h.
